Test results reported in patent publication US12577247B2 (BUGWORKS RESEARCH, INC., priority 2021, dated 2026).
Like-named read-outs stand apart in the source and are kept apart here.

Tests used:
A2A receptor = target: T1, A2A receptor (Homo sapiens, UniProt P29274); assay: A2aR antagonism IC50, cAMP TR-FRET in HEK-293 cells, high concentration of adenosine (30 μM); format: cell-based; details: HEK-293 cells expressing A2A receptor; agonist adenosine 30 μM; 2% HSA; inhibition of cAMP; read-out: A2AR IC50 (nM) (@30 μM Adenosine);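 note: compounds added 10 min before adenosine, then 30 min stimulation at room temperature in buffer with 100 µM rolipram and 30 µM EHNA, signal read 1 h after detection reagents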
T1 construct: host or cells: HEK-293

hERG potassium channel = target: T2, hERG potassium channel (Homo sapiens, UniProt Q12809); assay: hERG inhibition assay, Qpatch HTX automated electrophysiology; format: cell-based; details: CHO cell line stably expressing hERG; whole-cell patch clamp; room temperature
T2 construct: a Chinese Hamster Ovary cell line stably expressing the full-length hERG potassium channel; expressed in transfected cells; host or cells: Chinese Hamster Ovary cell line
Protocol: The representative compounds of formula I were tested for inhibition of the human ether a go-go related gene (hERG) K+ channel using Qpatch HTX automated electrophysiology. 6-Point concentration-response curves were generated using three-fold serial dilutions from a maximum final test concentration of […] and the results are presented in Table 3.
Compounds were solubilised to 100 mM in DMSO before dilution in HBPS to 100 μM. […] Electrophysiological recordings were made from a Chinese Hamster Ovary cell line stably expressing the full-length hERG potassium channel. Single cell ionic currents were measured in whole-cell patch clamp configuration at room temperature (21-23° C.) using the Qpatch HTX platform (Sophion). Intracellular solution contained (mM): 120 KF, 20 KCl, 10 EGTA, 10 HEPES and was buffered to pH 7.3. […] Cells were clamped at a holding potential of −80 mV. Cells were stepped to +20 mV for 2 s then −40 mV for 3 s before returning to the holding potential. This sweep was repeated 10 times at 10 s intervals. hERG currents were measured from the tail step and referenced to the holding current. Compounds were then incubated for 2 minutes prior to a second measurement of ion channel current using an identical pulse train.

[1] = Metabolic stability and intrinsic clearance in rat hepatocytes (with IVIVE); format: in vitro ADME; details: Rat hepatocytes
Protocol: (§1) The metabolic stability was expressed as the percentage of parent remaining is calculated from the peak area ratio of NCE remaining after incubation (tx) compared to the time zero (t0) incubation. The percentage of parent test compound remaining at each time point was calculated by comparing the peak area ratio of test compound after incubation (tx) with peak area of time zero (t0) incubation. Similarly, half-life (t½) was calculated using following equation:
(§2) [formula] The intrinsic clearance (Clint) was calculated using the following equations:
(§3) [formula] Scaling factors to represent […] million cells/gm liver and liver/kg body wt.

Rat hepatocytes = assay: as above; format: in vitro ADME; details: Rat; for Predicted CLh: IVIVE from hepatocyte CLint; for Hepatocyte Clint: Table 6 (IVIVE)
Protocol: as §1, §2, §3

[2] = Metabolic stability and intrinsic clearance in human hepatocytes (with IVIVE); format: in vitro ADME; details: Human hepatocytes
Protocol: as §1, §2, §3

Human hepatocytes = assay: as above; format: in vitro ADME; details: Human; for Predicted CLh: IVIVE from hepatocyte CLint; for Hepatocyte Clint: Table 6 (IVIVE)
Protocol: as §1, §2, §3

[3] = Pharmacokinetic study in mice; format: in vivo, CD1 mice; details: for Cmax / Tmax: po
Protocol: Intravenous (i.v) and Oral formulations for pharmacokinetic (PK) studies was formulated in different vehicles and excipients to achieve the desirable solubility for intravenous and Oral routes of administration.
Appropriate amount of the test compound was weighed and dissolved in required volume of the vehicles, followed by vertexing for a few seconds to dissolve the compound. Then the solution (or) suspension was sonicated at room temperature for 5 minutes to obtain a visually clear solution and or homogenous suspension. All the formulations were prepared freshly at room temperature before dosing.
The rodent pharmacokinetic studies were carried out in male Sprague-Dawley (SD) rats (8-12 weeks of age, weighing 280±20 g at the time of dosing) and CD1 mice (8-12 weeks of age, weighing 30-35 g body weight at the time of dosing) to estimate the plasma clearance, volume of distribution and terminal half-life, area under curve (AUC) and peak plasma concentration (Cmax) and time of peak plasma concentration (Tmax) following intravenous and oral routes of administration. The detailed experimental design is described in the Table 8 below.
Rats were anaesthetized by Isoflurane anaesthesia. The jugular and femoral veins of rat were cannulated, and the study was performed 48 h post cannulation. At each time point about 100 μL, of rat blood was collected from the jugular vein into a labelled microfuge tube containing 200 mM K2EDTA solution (20 μL, per mL of blood) and equivalent volume of heparinized saline was replaced following sample collection. Similarly, 25 μL, of mice blood was collected from the saphenous vein into a labelled microfuge tube containing 200 mM K2EDTA solution
Serial blood sampling method was used for blood collection. Blood samples were collected at pre-dose, 0.25 h, 0.5, 1, 2, 4, 6, 8 and 24-hours post dose. The blood samples were processed to obtain the plasma samples within 30 min of scheduled sampling time. All plasma samples were stored −70° C. until bioanalysis.
Plasma samples were analysed for a fit-for purpose LC-MS/MS method with a lower limit of quantification. The pharmacokinetic parameters were calculated using the non-compartmental analysis tool of validated Phoenix® WinNonlin® software (Certara, USA version 8.4) with linear up and log down method for estimating AUC.
All animals in intravenous (IV bolus) group were under fed state and animals in oral groups were fasted overnight (min 12 hr) before dose administration and food was provided 4 h post dose administration. All animals were received water ad libitum during the study period. The mean (±SD) pharmacokinetic parameters of Example 13, Example 122b & Example 39 following IV bolus and Oral dose administration in Mice/Rat and Dog is provided in Table-9.

[4] = CD1, mouse, plasma, 30 mg/kg, p.o, 30 mg/kg, read-out: Cmax (head Co*/)
[5] = CD1, mouse, plasma, 30 mg/kg, p.o, 30 mg/kg, read-out: Tmax (head Tma)
[6] = CD1, mouse, plasma, iv, i.v, 15 mg/kg

T1 sequence (P29274 whole entry): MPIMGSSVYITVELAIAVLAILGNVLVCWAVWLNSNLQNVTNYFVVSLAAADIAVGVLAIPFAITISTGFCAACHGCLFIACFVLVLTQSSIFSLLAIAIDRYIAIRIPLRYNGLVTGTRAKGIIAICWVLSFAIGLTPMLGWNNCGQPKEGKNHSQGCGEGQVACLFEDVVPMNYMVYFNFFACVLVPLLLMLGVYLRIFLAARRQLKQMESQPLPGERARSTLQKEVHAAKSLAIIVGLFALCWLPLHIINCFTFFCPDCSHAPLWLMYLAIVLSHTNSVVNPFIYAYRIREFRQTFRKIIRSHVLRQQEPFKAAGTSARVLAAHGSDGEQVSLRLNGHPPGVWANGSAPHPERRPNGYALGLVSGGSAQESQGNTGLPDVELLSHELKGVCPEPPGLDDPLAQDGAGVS
T2 sequence (Q12809 whole entry): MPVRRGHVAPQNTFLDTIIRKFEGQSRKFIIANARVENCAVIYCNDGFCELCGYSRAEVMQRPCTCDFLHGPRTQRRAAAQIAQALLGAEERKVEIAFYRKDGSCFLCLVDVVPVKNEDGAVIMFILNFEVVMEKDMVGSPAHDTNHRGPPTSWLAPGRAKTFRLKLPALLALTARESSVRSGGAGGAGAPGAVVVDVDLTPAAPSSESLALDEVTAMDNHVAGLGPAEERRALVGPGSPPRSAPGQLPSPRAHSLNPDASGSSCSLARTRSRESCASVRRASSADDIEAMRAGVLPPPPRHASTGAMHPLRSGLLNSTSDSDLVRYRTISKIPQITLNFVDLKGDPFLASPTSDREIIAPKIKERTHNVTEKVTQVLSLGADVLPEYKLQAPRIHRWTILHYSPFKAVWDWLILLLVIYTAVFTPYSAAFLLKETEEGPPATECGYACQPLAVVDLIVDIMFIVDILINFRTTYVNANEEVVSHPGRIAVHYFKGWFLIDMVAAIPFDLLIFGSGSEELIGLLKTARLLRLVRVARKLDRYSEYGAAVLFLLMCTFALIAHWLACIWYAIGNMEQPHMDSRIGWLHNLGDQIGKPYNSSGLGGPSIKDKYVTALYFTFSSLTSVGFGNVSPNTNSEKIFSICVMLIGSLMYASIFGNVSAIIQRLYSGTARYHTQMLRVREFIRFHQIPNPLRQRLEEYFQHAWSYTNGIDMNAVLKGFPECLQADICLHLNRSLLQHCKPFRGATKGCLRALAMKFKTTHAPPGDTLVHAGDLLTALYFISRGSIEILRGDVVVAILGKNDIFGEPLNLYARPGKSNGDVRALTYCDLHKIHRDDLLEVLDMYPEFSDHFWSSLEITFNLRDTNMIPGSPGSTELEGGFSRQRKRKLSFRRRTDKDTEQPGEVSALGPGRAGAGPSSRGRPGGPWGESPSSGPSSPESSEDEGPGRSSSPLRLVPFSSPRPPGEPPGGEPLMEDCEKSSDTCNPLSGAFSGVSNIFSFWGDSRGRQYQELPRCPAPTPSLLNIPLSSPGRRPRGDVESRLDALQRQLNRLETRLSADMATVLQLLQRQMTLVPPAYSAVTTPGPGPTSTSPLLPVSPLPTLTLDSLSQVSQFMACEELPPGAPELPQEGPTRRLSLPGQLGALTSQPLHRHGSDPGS

Row | IC50 (A2A receptor) [nM] | hepatocyte CLint at 0.5 μM [1] [µL/min/1e6 cells] | Predicted CLh (Rat hepatocytes) [mL/min/kg] | Hepatocyte Clint (Rat hepatocytes) [μl/min/10^6] | Hepatocyte Clint [2] [µL/min/1e6 cells] | Predicted CLh (Human hepatocytes) [mL/min/kg] | Hepatocyte Clint (Human hepatocytes) [μl/min/10^6] | Cmax [3, 4] [ng/mL] | Tmax [3, 5] [min] | SMILES | IC50 (hERG potassium channel) [µM] | further results
1 | 130 | 4.7 | 16 | 4.7 | < 4.1 | 8.6 | <4.1 | – | – | CCc1c(C)nn2c(N)c(C#N)c(NCCc3ccn(C4COCC4CO)n3)nc12 (single isomer, unassigned; (-)) [Example 122b, (−)-7-amino-3-ethyl-5-((2-(1-(4-(hydroxymethyl)tetrahydrofuran-3-yl)-1H-pyrazol-3-yl)ethyl)amino)-2-methyl pyrazolo[1,5-a]pyrimidine-6-carbonitrile] | > 100 | AUC(0-t) ([3]; CD1, mouse, plasma, 100 mg/kg oral): 10500 ng·h/mL; Cmax ([3]; CD1, mouse, plasma, 100 mg/kg, 100 mg/kg oral, read-out: C. (Cmax)): 13800 ng/mL; Tmax ([3]; CD1, mouse, plasma, 100 mg/kg, 100 mg/kg oral, read-out: Tmax): 15 min; Cmax ([3]; CD1, mouse, plasma, 100 mg/kg, p.o, 100 mg/kg, read-out: Cmax (head Co*/)): 13800 ng/mL; Tmax ([3]; CD1, mouse, plasma, 100 mg/kg, p.o, 100 mg/kg, read-out: Tmax (head Tma)): 12 min
2 | 300 | 34 | 41 | 34 | < 8.2 | 12 | <8.2 | 236 | 12 | Cc1cccc(CCNc2nc3c(C)c(C)nn3c(N)c2C#N)n1 [Example 13, 7-amino-5-((2-(6-methylpyridin-2-yl)ethyl)amino)-2,3-dimethylpyrazolo[1,5-a]pyrimidine-6-carbonitrile] | > 100 | –
3 | 120 | < 8.2 | 23 | <8.2 | < 8.2 | 12 | <8.2 | 3300 | 12 | CCc1c(C)nn2c(N)c(C#N)c(NCCc3ccn(C4(CO)CC4)n3)nc12 [Example 39, 7-amino-3-ethyl-5-((2-(1-(1-(hydroxymethyl)cyclopropyl)-1H-pyrazol-3-yl)ethyl)amino)-2-methylpyrazolo[1,5-a] pyrimidine-6-carbonitrile] | > 100 | clearance [3, 6]: 58 ± 14 mL/min/kg; half-life [3, 6]: 54 min; Vd ([3]; CD1, mouse, plasma, iv, i.v, 15 mg/kg, read-out: Vss): 1 L/kg; bioavailability ([3]; CD1, mouse, plasma, oral 30 mg/kg vs IV bolus 15 mg/kg, read-out: % F (bioavailability)): 15%; Co (head Co*/) ([3]; i.v, 15 mg/kg): 2236 ng/m; Oral exposure in mice ([3]; oral, compared with Example 13): High oral exposure
